Measurements as given in PMC11873939, “Target Identification with Live-Cell Photoaffinity Labeling and Mechanism of Action Elucidation of ARN23765, a Highly Potent CFTR Corrector” (Journal of Medicinal Chemistry, 2025).

Columns and labels:
Assay type in all cases: cell-based
F508del/R1070W-CFTR = biological target: T1, F508del/R1070W-CFTR (Homo sapiens, UniProt P13569, DEL508-508/R1070W); experiment: Protein maturation assay (WB, band C/(C+B)) in transfected HEK293 cells; conditions: HEK293, 24 h; ARN23765 10 nM, VX-661 3 μM
T1 construct: CFTR identification in pull-down studies and analysis of full-length CFTR in protein maturation assays; expressed in transfected cells; host or cells: HEK293 (transient)
T1 sequence (P13569 with tags, fused parts or gaps DEL508-508/R1070W): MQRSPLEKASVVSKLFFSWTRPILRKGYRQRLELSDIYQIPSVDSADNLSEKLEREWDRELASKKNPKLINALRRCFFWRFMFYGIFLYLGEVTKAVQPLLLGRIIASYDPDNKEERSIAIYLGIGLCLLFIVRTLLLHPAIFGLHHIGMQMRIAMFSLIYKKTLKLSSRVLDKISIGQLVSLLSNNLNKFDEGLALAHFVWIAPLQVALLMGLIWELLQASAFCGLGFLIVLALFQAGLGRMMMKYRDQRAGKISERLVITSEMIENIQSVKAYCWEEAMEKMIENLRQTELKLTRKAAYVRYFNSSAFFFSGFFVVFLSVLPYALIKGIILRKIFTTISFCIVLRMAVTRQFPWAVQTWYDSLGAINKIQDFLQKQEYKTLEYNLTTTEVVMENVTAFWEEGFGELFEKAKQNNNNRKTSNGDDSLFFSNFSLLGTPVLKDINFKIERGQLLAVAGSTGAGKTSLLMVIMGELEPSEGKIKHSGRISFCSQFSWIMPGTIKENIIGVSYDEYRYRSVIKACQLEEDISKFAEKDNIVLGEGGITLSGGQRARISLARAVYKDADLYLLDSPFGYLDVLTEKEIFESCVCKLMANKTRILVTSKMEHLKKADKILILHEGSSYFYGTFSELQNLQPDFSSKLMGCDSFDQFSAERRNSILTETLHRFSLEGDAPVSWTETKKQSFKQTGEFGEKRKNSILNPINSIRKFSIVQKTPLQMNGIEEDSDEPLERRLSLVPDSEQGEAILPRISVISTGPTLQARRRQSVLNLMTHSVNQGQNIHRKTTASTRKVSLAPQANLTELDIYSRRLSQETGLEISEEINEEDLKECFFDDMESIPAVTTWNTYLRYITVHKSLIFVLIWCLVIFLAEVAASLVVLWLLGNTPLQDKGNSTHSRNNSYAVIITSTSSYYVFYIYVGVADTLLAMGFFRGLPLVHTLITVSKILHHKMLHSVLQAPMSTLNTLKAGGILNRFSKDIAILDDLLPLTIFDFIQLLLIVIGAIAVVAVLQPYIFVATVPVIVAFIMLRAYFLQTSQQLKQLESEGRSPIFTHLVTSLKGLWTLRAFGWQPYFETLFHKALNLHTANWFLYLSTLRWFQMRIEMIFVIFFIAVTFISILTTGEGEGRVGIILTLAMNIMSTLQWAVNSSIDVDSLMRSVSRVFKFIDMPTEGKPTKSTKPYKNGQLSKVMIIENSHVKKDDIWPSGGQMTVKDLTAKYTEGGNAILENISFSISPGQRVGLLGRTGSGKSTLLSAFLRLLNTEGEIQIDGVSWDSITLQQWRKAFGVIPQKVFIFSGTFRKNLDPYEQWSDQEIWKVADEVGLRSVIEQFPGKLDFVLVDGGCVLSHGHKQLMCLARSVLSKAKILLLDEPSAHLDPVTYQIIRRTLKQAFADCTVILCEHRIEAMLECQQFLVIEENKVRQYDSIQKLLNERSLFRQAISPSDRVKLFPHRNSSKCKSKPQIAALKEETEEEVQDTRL
Protocol: HEK293 cells were plated in 24-wells at around 80% of confluence and transfected with constructs coding for F508del-CFTR or mutants using JetPEI reagent (101000053, Polyplus Technology) following the manufacturer’s instructions. After 24 h, the correctors were added for a further 24 h. […] For binding site analysis experiments, the cells were kept either at 37 °C (Figure S8) or moved to 30 °C (Figure 9) during incubation with the selected correctors. VX-445 and corrector 3151 were mixed together as a control for maximal protein correction. DMSO (0.2%) was added to nontreated controls. After treatment, cells were lysed in RIPA buffer [50 mM tris-HCl pH 8, 150 mM NaCl, 1% NP40, 0.5% sodium deoxycolate, 0.1% SDS, 2.0 mM EDTA] and lysates were analyzed with WB, as described in the supplementary methods of the Supporting Information.

R170G-CFTR = biological target: T2, R170G-CFTR (Homo sapiens, UniProt P13569, R170G); experiment: as above; conditions: HEK293, 24 h, 10 nM
T2 construct: CFTR identification in pull-down studies and analysis of full-length CFTR in protein maturation assays; expressed in transfected cells; host or cells: HEK293 (transient)
T2 sequence (P13569 whole entry R170G): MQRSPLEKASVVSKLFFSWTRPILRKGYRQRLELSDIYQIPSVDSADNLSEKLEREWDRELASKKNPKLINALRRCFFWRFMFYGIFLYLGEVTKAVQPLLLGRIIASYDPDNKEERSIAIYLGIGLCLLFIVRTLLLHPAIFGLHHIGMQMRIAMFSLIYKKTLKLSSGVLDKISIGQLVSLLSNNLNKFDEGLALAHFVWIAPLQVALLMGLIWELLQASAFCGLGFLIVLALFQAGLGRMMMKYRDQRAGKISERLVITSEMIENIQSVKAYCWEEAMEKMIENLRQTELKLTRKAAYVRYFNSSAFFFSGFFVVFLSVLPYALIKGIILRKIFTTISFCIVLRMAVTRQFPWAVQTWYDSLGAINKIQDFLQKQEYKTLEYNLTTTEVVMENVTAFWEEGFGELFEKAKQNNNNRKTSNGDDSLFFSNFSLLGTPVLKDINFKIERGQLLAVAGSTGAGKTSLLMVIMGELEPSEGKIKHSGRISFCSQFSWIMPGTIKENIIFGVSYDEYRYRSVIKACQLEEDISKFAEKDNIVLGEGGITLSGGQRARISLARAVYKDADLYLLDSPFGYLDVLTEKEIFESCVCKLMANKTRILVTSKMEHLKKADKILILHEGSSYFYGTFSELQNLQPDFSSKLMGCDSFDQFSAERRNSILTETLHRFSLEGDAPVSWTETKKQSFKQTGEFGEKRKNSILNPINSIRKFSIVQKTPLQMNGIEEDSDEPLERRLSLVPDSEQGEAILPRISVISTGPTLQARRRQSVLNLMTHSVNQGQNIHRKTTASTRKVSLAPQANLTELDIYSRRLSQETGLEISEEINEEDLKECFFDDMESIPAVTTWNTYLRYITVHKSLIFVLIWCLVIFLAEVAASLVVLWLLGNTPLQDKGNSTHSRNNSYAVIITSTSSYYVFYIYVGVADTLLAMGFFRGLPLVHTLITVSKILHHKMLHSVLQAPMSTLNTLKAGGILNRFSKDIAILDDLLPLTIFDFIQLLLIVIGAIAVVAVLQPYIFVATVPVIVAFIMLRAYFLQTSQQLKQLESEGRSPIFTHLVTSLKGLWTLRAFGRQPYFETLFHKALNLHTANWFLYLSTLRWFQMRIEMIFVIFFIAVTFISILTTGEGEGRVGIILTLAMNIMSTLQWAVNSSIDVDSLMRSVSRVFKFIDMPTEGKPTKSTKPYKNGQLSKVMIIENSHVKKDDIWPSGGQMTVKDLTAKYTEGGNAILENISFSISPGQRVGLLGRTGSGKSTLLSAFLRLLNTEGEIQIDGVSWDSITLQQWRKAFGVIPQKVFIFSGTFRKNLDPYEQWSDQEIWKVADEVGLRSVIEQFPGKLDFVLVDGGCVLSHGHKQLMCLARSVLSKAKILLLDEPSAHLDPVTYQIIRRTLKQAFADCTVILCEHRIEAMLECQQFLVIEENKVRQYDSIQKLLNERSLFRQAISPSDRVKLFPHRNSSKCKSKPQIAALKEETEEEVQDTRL
Protocol: (§1) HEK293 cells were plated in 24-wells at around 80% of confluence and transfected with constructs coding for F508del-CFTR or mutants using JetPEI reagent (101000053, Polyplus Technology) following the manufacturer’s instructions. After 24 h, the correctors were added for a further 24 h. Correctors were used at the following concentrations: ARN23765 (10 nM), VX-445 (3 μM), and 3151 (10 μM). For binding site analysis experiments, the cells were kept either at 37 °C (Figure S8) or moved to 30 °C (Figure 9) during incubation with the selected correctors. VX-445 and corrector 3151 were mixed together as a control for maximal protein correction. DMSO (0.2%) was added to nontreated controls. After treatment, cells were lysed in RIPA buffer [50 mM tris-HCl pH 8, 150 mM NaCl, 1% NP40, 0.5% sodium deoxycolate, 0.1% SDS, 2.0 mM EDTA] and lysates were analyzed with WB, as described in the supplementary methods of the Supporting Information.

[1] = biological target: T3, F508del-CFTR double mutants (K68I, N71I, R74A, F81A, A198Y, W361A, S364F) (Homo sapiens, UniProt P13569, A198Y/DEL508-508); experiment: Protein maturation assay (WB) of F508del-CFTR double mutants in transfected HEK293 cells; conditions: F508del/A198Y-CFTR; HEK293, 10 nM, 24 h
T3 construct: CFTR identification in pull-down studies and analysis of full-length CFTR in protein maturation assays; expressed in transfected cells; host or cells: HEK293 (transient, pCDNA3.1 constructs, JetPEI)
T3 sequence (P13569 with tags, fused parts or gaps A198Y/DEL508-508): as the sequence (P13569 with tags, fused parts or gaps DEL508-508/R1070W) above, with A198Y, W1069R counted along it
Protocol: (§2) To confirm in cells the above-predicted binding site for ARN23765, we introduced the investigated single-site mutations into the F508del-CFTR coding sequence. The rescue of double mutant proteins (F508del + new mutation) by ARN23765 was assessed with WB analysis of protein maturation and evaluation of channel activity (FLIPR assay)[40] in transfected HEK293 cells. Since correctors 3151 (type II)[16] and VX-445 (type III)[18] have been reported to bind to different CFTR sites, we used these compounds as controls. As expected, ARN23765-induced maturation of F508del-CFTR was not affected by the N71I substitution. […] Indeed, the corrector was no longer able to promote protein maturation (Figure 9A and S8A). […] The results of protein maturation analysis were mostly confirmed by functional data (Figure 9B and S8B), in which the channel activity of double-mutated proteins was evaluated in terms of the change in cell membrane potential change (FLIPR assay).
as §1, with “Information. […]” for “Information.”
(§3) Site-directed mutagenesis
(§4) Desired mutations were introduced using the QuikChange II XL site-directed mutagenesis kit (200522,
(§5) Agilent Technologies) according to the manufacturer’s instructions. F508del-CFTR pCDNA3.1 was used
(§6) as a template for the synthesis of mutated constructs K68I/F508del-CFTR, N71I/F508del-CFTR,
(§7) S364F/F508del-CFTR. The introduction of the mutation and the whole CFTR sequence were checked by
(§8) Sanger sequencing. Mutants R1070W/F508del-CFTR and R170G-
(§9) CFTR were produced as previously described.4

[2] = biological target: T4, F508del-CFTR double mutants (K68I, N71I, R74A, F81A, A198Y, W361A, S364F) (Homo sapiens, UniProt P13569, DEL508-508/R74A); experiment: as above; conditions: F508del/R74A-CFTR; HEK293, 10 nM, 24 h
T4 construct: CFTR identification in pull-down studies and analysis of full-length CFTR in protein maturation assays; expressed in transfected cells; host or cells: HEK293 (transient, pCDNA3.1 constructs, JetPEI)
T4 sequence (P13569 with tags, fused parts or gaps R74A/DEL508-508): as the sequence (P13569 with tags, fused parts or gaps DEL508-508/R1070W) above, with R74A, W1069R counted along it
Protocol: as §2
as §1, with “Information. […]” for “Information.”
as §3, §4, §5, §6, §7, §8, §9

[3] = biological target: T5, F508del-CFTR double mutants (K68I, N71I, R74A, F81A, A198Y, W361A, S364F) (Homo sapiens, UniProt P13569, DEL508-508/S364F); experiment: as above; conditions: F508del/S364F-CFTR; HEK293, 10 nM, 24 h
T5 construct: CFTR identification in pull-down studies and analysis of full-length CFTR in protein maturation assays; expressed in transfected cells; host or cells: HEK293 (transient, pCDNA3.1 constructs, JetPEI)
T5 sequence (P13569 with tags, fused parts or gaps S364F/DEL508-508): as the sequence (P13569 with tags, fused parts or gaps DEL508-508/R1070W) above, with S364F, W1069R counted along it
Protocol: as §2
as §1, with “Information. […]” for “Information.”
as §3, §4, §5, §6, §7, §8, §9

[4] = biological target: T6, F508del-CFTR double mutants (K68I, N71I, R74A, F81A, A198Y, W361A, S364F) (Homo sapiens, UniProt P13569, DEL508-508/W361A); experiment: as above; conditions: F508del/W361A-CFTR; HEK293, 10 nM, 24 h
T6 construct: CFTR identification in pull-down studies and analysis of full-length CFTR in protein maturation assays; expressed in transfected cells; host or cells: HEK293 (transient, pCDNA3.1 constructs, JetPEI)
T6 sequence (P13569 with tags, fused parts or gaps W361A/DEL508-508): as the sequence (P13569 with tags, fused parts or gaps DEL508-508/R1070W) above, with W361A, W1069R counted along it
Protocol: as §2
as §1, with “Information. […]” for “Information.”
as §3, §4, §5, §6, §7, §8, §9

F508del/R1070W protein maturation (F508del/R1070W-CFTR): further enhanced | R170G-CFTR maturation (R170G-CFTR): improving | Effect of second mutation on corrector-induced maturation of F508del-CFTR [1]: markedly reduced or abolished | Effect of second mutation on corrector-induced maturation of F508del-CFTR [2]: only slightly reduced | Effect of second mutation on corrector-induced maturation of F508del-CFTR [3]: only slightly reduced | Effect of second mutation on corrector-induced maturation of F508del-CFTR [4]: markedly reduced or abolished
SMILES: CN(C(=O)c1cccc(-n2nc(C(F)(F)F)c3c2[C@@H](Oc2ccc(C(=O)O)cc2)CCC3)c1)c1ccc2c(c1)OC(F)(F)O2 [ARN23765]
